{"source": "paper doi:10.1101/2021.02.13.431008v1", "about": "(biorxiv, 2021)", "key": {"[1]": {"target": "T1, SARS-CoV-2 PLpro (papain-like protease) (Severe acute respiratory syndrome coronavirus 2, UniProt P0DTD1)", "conditions": "binder"}, "[2]": {"target": "T1, SARS-CoV-2 PLpro (papain-like protease)", "test": "biochemical"}}, "data": [{"compound": "Cc1ccc(NC2CNC2)cc1C(=O)N[C@H](C)c1cccc(-c2ccc(CNC3CCCC3)s2)c1", "note": "[XR8-23]", "values": [{"measurement": "Ave kd", "setting": "[1]", "value": 0.124, "unit": "s⁻¹"}]}, {"compound": "Cc1ccc(NC2CNC2)cc1C(=O)N[C@H](C)c1cccc2ccccc12", "note": "[ZN2-184]", "values": [{"measurement": "Ave kd", "setting": "[1]", "value": 0.349, "unit": "s⁻¹"}]}, {"compound": "Cc1ccc(NC2CNC2)cc1C(=O)N[C@H](C)c1cccc(-c2cccs2)c1", "note": "[ZN3-80]", "values": [{"measurement": "Ave kd", "setting": "[1]", "value": 0.327, "unit": "s⁻¹"}]}, {"compound": "CC(C)c1cc(C(C)C)c(CC(=O)NS(=O)(=O)Oc2c(C(C)C)cccc2C(C)C)c(C(C)C)c1", "note": "[avasimibe]", "values": [{"measurement": "IC50", "setting": "[2]", "value": "> 20", "unit": "µM"}]}, {"compound": "CCOc1nc2cccc(C(=O)O)c2n1Cc1ccc(-c2ccccc2-c2nnn[nH]2)cc1", "note": "[candesartan]", "values": [{"measurement": "IC50", "setting": "[2]", "value": "> 20", "unit": "µM"}]}]}
